The nature of data set [1]: n-Octanol/PBS partition coefficient, logD of the compound at pH 7.4. The data set is classed as physicochemical.
Data set [2] in a line: Apparent permeability across apical to basolateral side in human Caco-2 cells assessed as drug recovery at pH 6.5 to 7.4. The data set is classed as ADME, cell-based. Particulars: Caco-2, pH 6.5, read-out: Drug recovery. On the technique in general: Caco-2 monolayers are a common model of the intestinal barrier.
For the next data set, the system named is HOP-92. Kind of data set: Anticancer activity against human HOP-92 cells assessed as total cell growth inhibition incubated for 48 hrs by SRB assay. Format: functional. In general terms: The SRB assay estimates cell density from bound dye.
The next data set has as its system SK-OV-3. Nature of the data set: Anticancer activity against human SK-OV-3 cells assessed as cell growth inhibition incubated for 48 hrs by SRB assay. Format: functional.
The subject of another data set is COLO 205. Nature of the data set: Anticancer activity against human COLO 205 cells assessed as cell growth inhibition incubated for 48 hrs by SRB assay. The data set is classed as functional.
The next data set deals with MCF7. Kind of data set: Anticancer activity against human MCF7 cells assessed as cell growth inhibition incubated for 48 hrs by SRB assay. Format: functional.
The next data set concerns NCI-H522. Nature of the data set: Anticancer activity against human NCI-H522 cells assessed as cell growth inhibition incubated for 48 hrs by SRB assay. The data set is classed as functional.
The next data set concerns MDA-MB-231. Kind of data set: Anticancer activity against human MDA-MB-231 cells assessed as cell growth inhibition incubated for 48 hrs by SRB assay. The data set is classed as functional.
Another data set deals with HOP-62. Kind of data set: Anticancer activity against human HOP-62 cells assessed as cell growth inhibition incubated for 48 hrs by SRB assay. The data set is classed as functional.
Another data set concerns PC-3. Kind of data set: Anticancer activity against human PC-3 cells assessed as cell growth inhibition incubated for 48 hrs by SRB assay. The data set is classed as functional.
The next data set concerns NCI-H226. Nature of the data set: Anticancer activity against human NCI-H226 cells assessed as cell growth inhibition incubated for 48 hrs by SRB assay. The data set is classed as functional.
For the next data set, the system named is U-251. Kind of data set: Anticancer activity against human U-251 cells assessed as cell growth inhibition incubated for 48 hrs by SRB assay. Format: functional.
Data set [3] can be described thus: Cytotoxicity against human WI-38 cells assessed as cell growth inhibition incubated for 48 hrs by SRB assay. The data set is classed as toxicity, cell-based.
Data set [4] relates to TK-10. Nature of the data set: Anticancer activity against human TK-10 cells assessed as cell growth inhibition incubated for 48 hrs by SRB assay. Format: functional.
Another data set deals with SK-MEL-28. Kind of data set: Anticancer activity against human SK-MEL-28 cells assessed as cell growth inhibition incubated for 48 hrs by SRB assay. The data set is classed as functional.
The next data set concerns A498. Nature of the data set: Anticancer activity against human A498 cells assessed as cell growth inhibition incubated for 48 hrs by SRB assay. The data set is classed as functional.
The test system of data set [5] is ACHN. Nature of the data set: Anticancer activity against human ACHN cells assessed as cell growth inhibition incubated for 48 hrs by SRB assay. Format: functional.
Data set [6] can be described thus: Apparent permeability of the compound from apical to basolateral side in human Caco-2 cells at pH 6.5 to 7.4. Format: ADME, cell-based. Particulars: Caco-2, pH 6.5.
The test system of the next data set is Malme-3M. Kind of data set: Anticancer activity against human Malme-3M cells assessed as cell growth inhibition incubated for 48 hrs by SRB assay. Format: functional.
The subject of data set [7] is NCI-H23. Nature of the data set: Anticancer activity against human NCI-H23 cells assessed as cell growth inhibition incubated for 48 hrs by SRB assay. Format: functional.
The subject of another data set is MOLT-4. Kind of data set: Anticancer activity against human MOLT-4 cells assessed as total cell growth inhibition incubated for 48 hrs by SRB assay. Format: functional.
In data set [8] the test system is IGROV-1. Kind of data set: Anticancer activity against human IGROV-1 cells assessed as total cell growth inhibition incubated for 48 hrs by SRB assay. The data set is classed as functional.
The subject of another data set is UO-31. Kind of data set: Anticancer activity against human UO-31 cells assessed as cell growth inhibition incubated for 48 hrs by SRB assay. Format: functional.
Data set [9] can be described thus: Aqueous solubility of compound by HPLC analysis. The data set is classed as physicochemical.
In the next data set the test system is M14. Nature of the data set: Anticancer activity against human M14 cells assessed as cell growth inhibition incubated for 48 hrs by SRB assay. The data set is classed as functional.
A further data set deals with HL-60. Nature of the data set: Anticancer activity against human HL-60 cells assessed as total cell growth inhibition incubated for 48 hrs by SRB assay. The data set is classed as functional.
The subject of another data set is HT-29. Nature of the data set: Anticancer activity against human HT-29 cells assessed as cell growth inhibition incubated for 48 hrs by SRB assay. Format: functional.
Data set [10] relates to MDA-MB-468. Nature of the data set: Anticancer activity against human MDA-MB-468 cells assessed as cell growth inhibition incubated for 48 hrs by SRB assay. Format: functional.
In the next data set the test system is NCI-H322M. Kind of data set: Anticancer activity against human NCI-H322M cells assessed as cell growth inhibition incubated for 48 hrs by SRB assay. Format: functional.
For the next data set, the system named is SN12C. Kind of data set: Anticancer activity against human SN12C cells assessed as cell growth inhibition incubated for 48 hrs by SRB assay. Format: functional.
In data set [11] the test system is ACHN. Kind of data set: Anticancer activity against human ACHN cells assessed as total cell growth inhibition incubated for 48 hrs by SRB assay. The data set is classed as functional.
Data set [12] concerns IGROV-1. Nature of the data set: Anticancer activity against human IGROV-1 cells assessed as cell growth inhibition incubated for 48 hrs by SRB assay. Format: functional.
The test system of the next data set is NCI-H460. Nature of the data set: Anticancer activity against human NCI-H460 cells assessed as cell growth inhibition incubated for 48 hrs by SRB assay. Format: functional.
Another data set relates to HCT-15. Kind of data set: Anticancer activity against human HCT-15 cells assessed as cell growth inhibition incubated for 48 hrs by SRB assay. The data set is classed as functional.
In data set [13] the test system is UACC-257. Kind of data set: Anticancer activity against human UACC-257 cells assessed as total cell growth inhibition incubated for 48 hrs by SRB assay. Format: functional.
Data set [14] relates to MDA-MB-468. Kind of data set: Anticancer activity against human MDA-MB-468 cells assessed as total cell growth inhibition incubated for 48 hrs by SRB assay. The data set is classed as functional.
A further data set relates to EKVX. Kind of data set: Anticancer activity against human EKVX cells assessed as cell growth inhibition incubated for 48 hrs by SRB assay. The data set is classed as functional.
The subject of the next data set is NCI/ADR-RES. Kind of data set: Anticancer activity against human NCI/ADR-RES cells assessed as cell growth inhibition incubated for 48 hrs by SRB assay. Format: functional.
Another data set deals with CCRF-CEM. Nature of the data set: Anticancer activity against human CCRF-CEM cells assessed as cell growth inhibition incubated for 48 hrs by SRB assay. Format: functional.
In data set [15] the test system is NCI-H23. Kind of data set: Anticancer activity against human NCI-H23 cells assessed as total cell growth inhibition incubated for 48 hrs by SRB assay. Format: functional.
Another data set relates to SW-620. Kind of data set: Anticancer activity against human SW-620 cells assessed as cell growth inhibition incubated for 48 hrs by SRB assay. Format: functional.
The test system of a further data set is SK-MEL-2. Nature of the data set: Anticancer activity against human SK-MEL-2 cells assessed as cell growth inhibition incubated for 48 hrs by SRB assay. The data set is classed as functional.
The test system of a further data set is SF-268. Kind of data set: Anticancer activity against human SF-268 cells assessed as cell growth inhibition incubated for 48 hrs by SRB assay. Format: functional.
Data set [16] relates to TK-10. Kind of data set: Anticancer activity against human TK-10 cells assessed as total cell growth inhibition incubated for 48 hrs by SRB assay. The data set is classed as functional.
Data set [17] has as its system UACC-257. Kind of data set: Anticancer activity against human UACC-257 cells assessed as cell growth inhibition incubated for 48 hrs by SRB assay. Format: functional.

For orientation: logD means lipophilicity at a set pH, counting ionised and neutral species. As a reminder, the TGI is the concentration at which net growth stops. In general, GI50 refers to the concentration giving 50% growth inhibition. The Papp A→B is how fast a substance crosses the layer from the apical side. What is called solubility is the dissolved amount per volume that the medium holds. A higher solubility goes with a readily soluble substance.

Values after ≈ are worked out from the molar mass of the structure shown.

`CCC(C)(C)C(=O)O[C@H]1C[C@@H](C)C=C2C=C[C@H](C)[C@H](CC[C@@H]3C[C@@H](O)CC(=O)O3)[C@H]21` [SIMVASTATIN]: the logD in data set [1] is 4.45.

For `CNC(=C[N+](=O)[O-])NCCSCc1ccc(CN(C)C)o1` [RANITIDINE], the recovery in data set [2] amounted to 82%.

In the case of `CNC(=O)c1cc(Oc2ccc(NC(=O)Nc3ccc(Cl)c(C(F)(F)F)c3)cc2)ccn1` [SORAFENIB], the TGI in the data set with HOP-92 is 5.01 µM; with MOLT-4 it was 100 µM; in the data set on IGROV-1 [8] it was 10 µM; with HL-60, 100 µM; with ACHN [11] it was 10 µM; in the data set with UACC-257 [13], 5.01 µM. Moreover, the results for the TGI in the data set with MDA-MB-468 [14], in the data set on NCI-H23 [15] and with TK-10 [16] were 7.94 µM, 5.01 µM and 10 µM, respectively. Besides, the GI50 in the data set on SK-OV-3 is 2.51 µM; with COLO 205, 2 µM; in the data set with MCF7, 2.51 µM; in the data set on NCI-H522, 2 µM; with MDA-MB-231, 1.26 µM; with HOP-62 it was 2 µM. Moreover, the GI50 in the data set on PC-3 was determined as 2 µM; in the data set on NCI-H226 it was 2 µM; with U-251, 2 µM; in the data set with TK-10 [4] it was 3.98 µM; in the data set with SK-MEL-28, 2.51 µM; in the data set with A498, 2.51 µM. Also, the GI50 with ACHN [5] turned out to be 2.51 µM; in the data set with Malme-3M, 2 µM; with NCI-H23 [7], 2 µM; in the data set on UO-31, 2.51 µM; with M14 it was 2 µM; in the data set on HT-29, 2 µM. Also, the GI50 was determined as 3.16 µM in the data set on MDA-MB-468 [10]; 2.51 µM in the data set on NCI-H322M; 2.51 µM in the data set with SN12C; 2.51 µM with IGROV-1 [12]; 2.51 µM in the data set with NCI-H460; 2.51 µM with HCT-15. The GI50 in the data set with EKVX was 2.51 µM; in the data set on NCI/ADR-RES, 2.51 µM; in the data set with CCRF-CEM, 2 µM; with SW-620, 2.51 µM; with SK-MEL-2, 2 µM; in the data set on SF-268, 2.51 µM. In addition, the GI50 in the data set with UACC-257 [17] was determined as 2 µM. Moreover, the GI50 at 48 h in data set [3] is greater than 20 µM. Further, the Papp A→B in data set [6] is 16.4 ×10⁻⁶ cm/s. This compound also yielded a solubility in data set [9] of 3.27 µM (≈ 1.52 µg/mL). The logD in [1] turned out to be 3.85.

As to `COc1cc2c(c(OC)c1OC)-c1ccc(OC)c(=O)cc1[C@@H](NC(C)=O)CC2` [COLCHICINE], the apical-to-basolateral permeability (Papp A→B) in data set [6] came to 0.3 ×10⁻⁶ cm/s. In addition, the recovery in data set [2] worked out at 75.5%.

For `CO[C@H]1/C=C/O[C@@]2(C)Oc3c(C)c(O)c4c(O)c(c(/C=N/N5CCN(C)CC5)c(O)c4c3C2=O)NC(=O)/C(C)=C\C=C\[C@H](C)[C@H](O)[C@@H](C)[C@@H](O)[C@@H](C)[C@H](OC(C)=O)[C@@H]1C` [RIFAMPIN], the concentration in solution in [9] (solubility) came to 175 µM (≈ 144 µg/mL). The same compound registered a logD in [1] of 1.31.

`O=C1NC(=O)C(c2ccccc2)(c2ccccc2)N1` [PHENYTOIN] displayed a solubility in data set [9] of 93.1 µM (≈ 23.5 µg/mL).

`COc1cc2cc(Oc3ccc(NC(=O)Nc4cc(C(F)(F)F)cc(C(F)(F)F)c4)cc3)c(C)nc2cc1OC`: the concentration in solution in [9] (solubility) was 212 µM (≈ 120 µg/mL). In [1], this compound displayed a logD of 3.1.

In turn, `COc1cc2cc(Oc3ccc(NC(=O)Nc4ccc(Cl)c(C(F)(F)F)c4)cc3)c(C)nc2cc1OCCN(C)C` gave a solubility in [9] of 114 µM (≈ 66.9 µg/mL).

As for `CC(CCc1ccccc1)NCC(O)c1ccc(O)c(C(N)=O)c1` (stereo unspecified) [LABETALOL], in [6], the apparent permeability from apical to basolateral (Papp A→B) stood at 72 ×10⁻⁶ cm/s. Also, the recovery in [2] was 91%.
